Source: patent US20210002265A1, “PYRAZOLE DERIVATIVES AS INHIBITORS OF THE WNT SIGNALLING PATHWAY” (Université de Lausanne, priority 2018, published 2021)

What was measured:
[1] = system: Wnt pathway (Wnt3a-stimulated) in BT-20 cells; test: TOPFlash reporter assay, Wnt3a activation; assay type: cell-based; details: for Efficacy (%): average efficacy, BT-20 TOPFlash; for Efficacy (%) / IC50: Wnt3a 250 ng/ml; for IC50: average potency, BT-20 cells stably transfected with TOPFlash reporter
Description: A commercial (ChemDiv Inc., San Diego, Calif., US) small molecule library (high-diversity GPCR-targeted compound library containing 1000 compounds selected by ChemDiv focusing on maximizing chemical diversity from the 40′000 GPCR-targeted compound library [see http://www.chemdiv.com, particularly http://www.chemdiv.com/gpcr-target-platform-library-2/]) containing 1000 compounds was screened for Wnt pathway inhibitory effect using the TOPflash assay. […] In a first round of screening, 34 randomly chosen compounds resembling compound 1, but presenting some intravariance were tested for their ability to inhibit the Wnt pathway, using the TOPFLash reporter assay.
(§1) For the screens, BT-20 cells, stably transfected with the TOPFlash reporter plasmid were seeded at 15K cells per well in white tissue-culture-treated 96-well plates (Greiner) and incubated overnight. If needed, the cells were additionally transfected with the pRL-CMV plasmid using the X-tremeGENE HP DNA transfection reagent (Roche) according to the manufacturer's protocol and again incubated overnight. […] The medium was then removed and 12 μl 10% sucrose solution was added to the cells to prevent drying. […] Data was analyzed using the Prism 6 Software (GraphPad).

[2] = microsomal assay
[3] = In vivo pharmacokinetic profiling and tissue analysis; details: tumour bearing mice
Protocol: An in vivo experiment was performed to get a rough ADME profile and a first impression of the tolerability of the compounds and to determine any acute toxicity. […] Blood samples were taken at regular intervals for studying the kinetics.

[4] = system: total β-catenin in L-cells; details: 50 μM, FIG. 4
Protocol: (§2) Cells were seeded to 70-80% confluency in 12-well plates and incubated overnight. The medium was then changed for medium containing compound or DMSO and the cells pre-incubated for 1 h. […] After washing the cells with ice cold PBS, the cells were lysed by addition of 70 μl RIPA buffer (50 mM Tris pH 7.4, 1% Triton X-100, 0.1% SDS, 150 mM NaCl, 1 mM EDTA, 1 mM DTT, protease inhibitors (Roche)) containing phosphatase inhibitors if needed (4 mM NaF, 4 mM Imidazole, 2.3 mM Na2MoO4, 4 mM Na3VO4, 8 mM M C4H4Na2O6*2H2O, 2 mM Na4P2O7, 2 mM β-Glycerophosphate) and shaking 10 min on ice. The cell lysate was collected and centrifuged for 15 min at 16000 g at 4° C. to remove cell debris. The samples were equilibrated using the Bradford method and further separated and analyzed by SDS-PAGE and Western blot respectively.

[5] = system: cytoplasmic β-catenin in BT-20 cells; details: 50 μM, Wnt3a or LiCl, FIG. 3
Protocol: as §2

[6] = system: active β-catenin in HCC 1395 cells; details: 50 μM, FIG. 4
Protocol: as §2

TNBC cell lines = details: different TNBC cell lines, FIG. 8
Protocol: TNBC cell lines were seeded at previously determined concentrations in 6-well plates and incubated for 24 h. The cells were then treated with the compounds or DMSO only and the colony formation followed daily by visual inspection. Once the colonies were big enough (70-100 cells), the cells were fixed with a solution of 4% PFA in PBS pH 7.4. The colonies were then stained using a solution of 1% Crystal violet and images taken of the individual wells to count the number of colonies. The colony counting and analysis was done using ImageJ.

DVL2 in HCC 1395 cells = details: 50 μM, FIG. 5
Protocol: as §2
(§3) The effects of compound 1 on the upper-level phosphoprotein DVL was examined. The phosphoprotein DVL is phosphorylated on over 40 sites upon Wnt-pathway activation, which can be detected as a shift when analysed by electrophoresis.

DVL2 and DVL3 in L-cells = details: 50 μM, FIG. 5
Protocol: as §2, §3

[7] = system: Renilla luciferase expressed under control of CMV promoter; details: FIG. 2
Protocol: (§4) Wnt-3a whole pathway activation (circle); LiCl activation of downstream elements only (square); Renilla, control for cell well-being (triangle).
as §1

[8] = system: Wnt pathway downstream part activated by LiCl; details: LiCl activation, FIG. 2
Protocol: as §4, §1

HCC 1806 = details: MTT, HCC 1806, 72 h
Protocol: (§5) TNBC cell lines and were seeded at previously determined concentrations in 96-well plates and incubated for 24 h. The next day, the medium was replaced with medium containing either compound or the respective amount of DMSO for the controls. The proliferation was measured after 72 h, by addition of a solution of 1 mg/ml thiazolyl blue (Roth) in PBS, further incubation for 2 h-4 h at 37° C., and lysis of the cells by addition of 50 μl DMSO. The absorbance was read at 570 nm using the Victor3 Multilabel Counter (PerkinElmer).

MDA-MB 231 = details: MTT, MDA-MB 231, 72 h
Protocol: as §5

BT-20 = details: MTT, BT-20, 72 h
Protocol: as §5

HCC 1395 = details: MTT, HCC 1395, 72 h
Protocol: as §5

MDA-MB 468 = details: MTT, MDA-MB 468, 72 h
Protocol: as §5

Row | Structure (SMILES) | Efficacy (%) [1] [%] | IC50 [1] [µM] | CYP stability (% compound after 60 min) [2] [%] | CYP UGT stability (% compound after 60 min) [2] [%] | mean concentration achieved in the breast [3] | Tissue concentration, Breast [3] [µM] | Tissue concentration, Faeces [3] [µM] | Tissue concentration, Intestine [3] [µM] | Tissue concentration, Liver [3] [µM] | Tissue concentration, Lung [3] [µM] | Tissue concentration, Plasma [3] [µM] | Tissue concentration, Tumor [3] [µM] | Tissue concentration, Urine [3] [µM] | further results
1 | O=C(Nc1ccccc1)N1CCC(n2nc(-c3ccccc3)cc2-c2ccccc2)CC1 [Compound 26] | 72.7 | 16.5 |  |  |  |  |  |  |  |  |  |  |  | 
2 | Cc1ccccc1Cn1cc(-c2ccncc2)cc1C(=O)N1CCN(c2ccccc2)CC1 [Compound 24] | 94.8 | 18.3 | 67 | 76 | around 8 μM | 8.6 | 0.1 | 0.3 | 0.3 | 0.3 | 0.3 | 0.3 | 0.1 | 
3 | O=C(CCc1cn(-c2ccccc2)nc1-c1ccc2c(c1)OCO2)NCCc1ccccc1 [Compound 11] | 88.4 | 5.2 |  |  |  |  |  |  |  |  |  |  |  | 
4 | O=C(CCc1cn(-c2ccccc2)nc1-c1ccc2c(c1)OCO2)NCCc1ccco1 [Compound 7] | 85.0 | 15.2 |  |  |  |  |  |  |  |  |  |  |  | 
5 | O=C(CCc1cn(-c2ccccc2)nc1-c1ccc2c(c1)OCO2)NCCc1cccs1 [Compound 13] | 77.0 | 6.5 |  |  |  |  |  |  |  |  |  |  |  | 
6 | Cc1ccc2[nH]cc(CCNC(=O)CCc3cn(-c4ccccc4)nc3-c3ccc4c(c3)OCO4)c2c1 [Compound 1] | 86.3 | 11 | 33 | 49 | around 20 μM | 92.1 | 0.1 | 44.0 | 136.9 | 6.2 | 3.9 | 154.3 | 6.6 | total β-catenin levels [4]: clear decrease; accumulation of cytoplasmic β-catenin [5]: essentially recapitulating the results obtained using TopFlash; active β-catenin levels [6]: decrease in the active-β catenin levels; suppression of Wnt3a-stimulated pathway activation ([1]; Wnt-3a whole pathway activation, FIG. 2): efficient in specific suppression of the Wnt3a-stimulated pathway activation; colony formation (TNBC cell lines): inhibition of colony formation; DVL2 phosphorylation shift upon Wnt3a stimulation (DVL2 in HCC 1395 cells): clearly inhibited the shift; DVL2 and DVL3 phosphorylation shift upon Wnt3a stimulation (DVL2 and DVL3 in L-cells): clearly inhibited the shift; levels of Renilla luciferase (cell well-being control) [7]: not changing the levels of Renilla luciferase; inhibition when downstream part of the pathway is activated by LiCl [8]: do not inhibit; Efficiency (%) (HCC 1806): 79%; IC50 (HCC 1806): 18 µM; Efficiency (%) (MDA-MB 231): 63%; IC50 (MDA-MB 231): 6 µM; Efficiency (%) (BT-20): 90%; IC50 (BT-20): 15 µM; Efficiency (%) (HCC 1395): 90%; IC50 (HCC 1395): 8 µM; Efficiency (%) (MDA-MB 468): 93%; IC50 (MDA-MB 468): 12 µM
